Test results: patent US6469013B2, “Therapeutic compounds” (Parker Hughes Institute, priority 1998, dated 2002)

Legend:
[1] = tested on: C57BL/6 splenocytes; test: Splenocyte apoptosis (TUNEL, flow cytometry); assay type: cell-based, mouse; settings: 20 h
Procedure: C57BL/6 splenocytes (3×10^6/ml) were cultured in 24-well plate for 20 h in 500 μl of RPMI-1640 under the conditions described above. […] Apoptotic cell death was detected by TUNEL, using InSitu Cell Detection Kit, Fluorescein (Boehringer Mannheim, Indianapolis, Ind.). After the culture period, cells were washed, fixed, permeabilised and stained following manufacturer's instructions and apoptosis was analyzed by flow cytometry, using FACS Calibur (Becton Dickinson, San Jose, Calif.).

[2] = tested on: C57BL/6 recipients; test: Allogeneic islet transplantation (BALB/c islets); assay type: in vivo, mouse
Procedure: Islets were hand-picked 3-4 times under the dissecting scope before islets were free of exocrine tissue, vessels, lymph nodes and ducts and ready for transplantation.
Four hundred islets were placed in Hamilton syringe and transplanted under the left kidney capsule of each diabetic recipient mouse. Recipients were rendered diabetic with a single i.p. dose of streptozotocin (200 mg/kg; Sigma, St. Louis, Mo.) 1 wk before transplantation. Blood glucose level was measured by One Touch Profile glucose monitor system (Lifescan, Milpitas, Calif.). […] Allograft function was monitored by serial blood glucose measurements. […] All injections were given i.p.
Kidneys bearing grafts were removed, fixed in 10% formalin and embedded in paraffin. Serial sections of graft area were cut and stained with hematoxylin and eosin. For insulin staining, sections were stained by immunoperoxidase method using 1:100 dilution of polyclonal guinea pig anti-insulin antibody (Gpx Insulin, Dako, Carpinteria, Calif.) and 1:100 dilution of secondary antibody conjugated to horse radish peroxidase (Guinea Pig Immunoglobulins HRP, Dako, Carpinteria, Calif.). Sections were briefly counterstained with hematoxylin and mounted for light microscopic examination.

[3] = biological target: T1, human JAK3 (Homo sapiens, UniProt P52333); test: JAK3 immune complex kinase assay (JAK3 immunoprecipitated from KL2 EBV-transformed B cell line); assay type: biochemical; settings: JAK3 kinase assay, KL2 cell-derived human JAK3; read-out: IC50
T1 sequence (P52333 1-1124): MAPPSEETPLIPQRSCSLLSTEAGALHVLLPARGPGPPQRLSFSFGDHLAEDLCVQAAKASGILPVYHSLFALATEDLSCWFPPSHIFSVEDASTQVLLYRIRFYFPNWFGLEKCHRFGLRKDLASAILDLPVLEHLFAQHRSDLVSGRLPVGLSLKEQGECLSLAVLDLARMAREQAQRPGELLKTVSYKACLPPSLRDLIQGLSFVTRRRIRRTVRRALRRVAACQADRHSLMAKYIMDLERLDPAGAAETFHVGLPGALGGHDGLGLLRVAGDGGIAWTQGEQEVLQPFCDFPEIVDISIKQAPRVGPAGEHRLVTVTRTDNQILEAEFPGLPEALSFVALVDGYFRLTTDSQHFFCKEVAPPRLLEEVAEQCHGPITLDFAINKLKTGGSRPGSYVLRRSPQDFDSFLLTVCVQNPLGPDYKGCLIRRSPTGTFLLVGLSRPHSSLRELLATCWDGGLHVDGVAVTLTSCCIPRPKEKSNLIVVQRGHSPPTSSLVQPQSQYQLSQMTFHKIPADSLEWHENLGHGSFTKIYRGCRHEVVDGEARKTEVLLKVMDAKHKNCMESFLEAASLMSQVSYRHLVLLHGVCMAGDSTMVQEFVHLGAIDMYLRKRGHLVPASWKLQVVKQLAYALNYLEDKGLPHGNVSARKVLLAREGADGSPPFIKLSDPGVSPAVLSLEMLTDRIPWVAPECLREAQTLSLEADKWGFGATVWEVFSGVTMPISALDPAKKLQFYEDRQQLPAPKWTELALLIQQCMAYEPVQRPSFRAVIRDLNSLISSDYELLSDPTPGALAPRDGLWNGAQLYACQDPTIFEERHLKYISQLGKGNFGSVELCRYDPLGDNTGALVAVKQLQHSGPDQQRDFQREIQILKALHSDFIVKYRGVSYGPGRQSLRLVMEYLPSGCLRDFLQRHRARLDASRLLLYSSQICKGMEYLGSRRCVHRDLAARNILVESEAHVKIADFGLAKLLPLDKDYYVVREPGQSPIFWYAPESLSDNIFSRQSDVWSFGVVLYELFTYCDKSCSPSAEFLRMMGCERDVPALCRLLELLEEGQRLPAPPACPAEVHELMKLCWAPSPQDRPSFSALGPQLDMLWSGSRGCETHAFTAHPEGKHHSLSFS
Procedure: In JAK3 immune complex kinase assays (17, 22), KL-2 EBV-transformed human lymphoblastoid B cells (native JAK3 kinase assays) or insect ovary cells (recombinant JAK3 kinase assays) were lysed with NP-40 lysis buffer (50 mM Tris, pH 8, 150 mM NaCl, 5 mM EDTA, 1% NP-40, 100 μM sodium orthovanadate, 100 μM sodium molybdate, 8 μg/ml aprotinin, 5 μg/ml leupeptin, and 500 μM PMSF) and centrifuged 10 min at 13000× g to remove insoluble material. Samples were immunoprecipitated with antisera prepared against JAK3. The antisera were diluted and immune complexes collected by incubation with 15 μl protein A Sepharose. After 4 washes with NP-40 lysis buffer, the protein A Sepharose beads were washed once in kinase buffer (20 mM MOPS, pH7, 10 mM MgCl2) and resuspended in the same buffer. Reactions were initiated by the addition of 25 μCi [γ^32P] ATP (5000 Ci/mMole) and unlabeled ATP to a final concentration of 5 μM. Reactions were terminated by boiling for 4 min in SDS sample buffer. Samples were run on 9.5% SDS polyacrylamide gels and labeled proteins were detected by autoradiography. Following electrophoresis, kinase gels were dried onto Whatman 3M filter paper and subjected to phosphorimaging on a Molecular Imager (Bio-Rad, Hercules, Calif.) as well as autoradiography on film. For each drug concentration, a kinase activity index (KA) was determined by comparing the kinase activity in phosphorimager units (PIU) to that of the baseline sample. In some experiments, cold kinase assays were performed, as described by (Uckun, F. M., et al., Clin. Can. Res. 4: 901-912, 1998).
We first used immune complex kinase assays to compare the effects of the synthesized dimethoxyquinazoline compounds on the enzymatic activity of human JAK3 immunoprecipitated from the KL2 EBV-transformed human lymphoblastoid B cell line.

## COc1cc2ncnc(Nc3ccc(O)cc3)c2cc1OC [WHI-P131, 4-(4′-hydroxyl-phenyl)-amino-6,7-dimethoxyquinazoline]
[1]; 0.1 and 1 μg/ml
  apoptotic cell death of splenocytes (TUNEL-positive): does not differ from control cells
[1]; 10 and 100 μg/ml
  apoptotic cell death of splenocytes (TUNEL-positive): significantly increased
[2]; 50 mg/kg daily i.p., controls 14.1±0.9
  islet allograft mean survival time (MST): 24.7±3.4 days
[2]; 75 mg/kg daily i.p.
  islet allograft mean survival time (MST): 25.3±3.8 days
[3]
  IC50: 9.1 µM
